Data on 19 compounds can be found in patent US11254686B1 (Corvus Pharmaceuticals, Inc., priority 2017, dated 2022).

Common to all, as to assay type: biochemical
One assay has as its target adenosine A2B receptor (Homo sapiens (Human), UniProt P29275). Put plainly: Adenosine receptor activity assay (Table 1), A2B activity. The following applies: for Ratio: A2A activity to the A2B activity, A2A/A2B; for IC50: read-out: Ave A2B cAMP IC50.
A further assay addresses adenosine A1 receptor (Homo sapiens (Human), UniProt P30542). Put plainly: Adenosine receptor activity assay (Table 1), A1 cAMP. As for the experimental part:
(§1) Table 1. Compounds (e.g., Adenosine Receptor modulators) and activity assay results. The legend is as follows: A=<10 nM; B=10-50 nM; C=50-100 nM; D=100-500; and E=>500 nM. The ratio corresponds to the A2A activity to the A2B activity; or A2A/A2B.

The target in a further assay is adenosine A2A receptor (Homo sapiens (Human), UniProt P29274). Put plainly: Adenosine receptor activity assay (Table 1), A2A activity. The following applies: read-out: Ave A2A cAMP IC50.
adenosine A2A receptor, sequence (P29274 whole entry): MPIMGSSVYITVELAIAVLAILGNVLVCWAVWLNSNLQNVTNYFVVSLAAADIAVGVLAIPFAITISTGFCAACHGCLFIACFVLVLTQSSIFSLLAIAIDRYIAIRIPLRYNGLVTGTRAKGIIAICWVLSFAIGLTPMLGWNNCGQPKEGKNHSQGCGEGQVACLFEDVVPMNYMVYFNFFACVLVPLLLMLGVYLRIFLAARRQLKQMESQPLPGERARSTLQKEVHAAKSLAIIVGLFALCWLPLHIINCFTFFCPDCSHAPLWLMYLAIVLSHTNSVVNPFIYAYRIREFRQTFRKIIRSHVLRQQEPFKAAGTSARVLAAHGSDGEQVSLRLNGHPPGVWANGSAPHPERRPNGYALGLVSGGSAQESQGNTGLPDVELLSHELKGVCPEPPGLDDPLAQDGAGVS
The target of the next assay is adenosine A3 receptor (Homo sapiens (Human), UniProt P0DMS8). Put plainly: Adenosine receptor activity assay (Table 1), A3 cAMP. As for the experimental part:
as §1

adenosine A2B receptor, sequence (P29275 whole entry): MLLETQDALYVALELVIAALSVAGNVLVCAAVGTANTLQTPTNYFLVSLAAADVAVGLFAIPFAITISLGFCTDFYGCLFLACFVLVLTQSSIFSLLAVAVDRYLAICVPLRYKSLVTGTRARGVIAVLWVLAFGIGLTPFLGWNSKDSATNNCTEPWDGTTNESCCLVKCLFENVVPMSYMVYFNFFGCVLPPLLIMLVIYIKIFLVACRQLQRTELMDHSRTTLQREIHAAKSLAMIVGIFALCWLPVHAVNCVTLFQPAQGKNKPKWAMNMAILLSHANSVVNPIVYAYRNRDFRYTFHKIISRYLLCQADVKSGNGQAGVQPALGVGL
adenosine A1 receptor, sequence (P30542 whole entry): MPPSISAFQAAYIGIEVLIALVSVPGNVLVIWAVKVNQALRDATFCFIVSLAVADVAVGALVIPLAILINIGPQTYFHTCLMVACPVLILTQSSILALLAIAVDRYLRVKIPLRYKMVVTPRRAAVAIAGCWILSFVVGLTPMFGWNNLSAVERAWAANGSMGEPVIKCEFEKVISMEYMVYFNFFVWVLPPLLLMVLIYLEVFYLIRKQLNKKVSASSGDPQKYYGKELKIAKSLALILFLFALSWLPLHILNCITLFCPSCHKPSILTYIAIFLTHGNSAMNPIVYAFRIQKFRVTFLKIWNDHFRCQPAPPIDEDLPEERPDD
adenosine A3 receptor, sequence (P0DMS8 whole entry): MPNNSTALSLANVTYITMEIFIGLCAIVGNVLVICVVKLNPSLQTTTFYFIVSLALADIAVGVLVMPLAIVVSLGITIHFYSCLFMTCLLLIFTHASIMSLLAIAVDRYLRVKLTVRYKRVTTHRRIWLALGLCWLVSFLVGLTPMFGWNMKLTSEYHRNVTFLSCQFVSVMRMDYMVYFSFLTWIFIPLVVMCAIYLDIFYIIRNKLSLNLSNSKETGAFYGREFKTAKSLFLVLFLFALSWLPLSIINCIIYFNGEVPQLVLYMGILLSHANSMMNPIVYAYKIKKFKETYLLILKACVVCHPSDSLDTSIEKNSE

Turning to `C[C@H](Nc1nc(C(=O)N2CC(CC(=O)NC(C)(C)C)C2)c2sccc2n1)c1cncc(F)c1` [Example Z571, (S)—N-(tert-Butyl)-2-(1-(2-((1-(5-fluoropyridin-3-yl)ethyl)amino)thieno[3,2-d]pyrimidine-4-carbonyl)azetidin-3-yl)acetamide], the Ratio at adenosine A2B receptor worked out at 1.51. In addition, the IC50 (as a rule, the midpoint of a concentration-inhibition curve) on adenosine A2B receptor was 10 to 50 nM; against adenosine A1 receptor, above 500 nM; on adenosine A2A receptor, 10 to 50 nM; against adenosine A3 receptor, above 500 nM.

Regarding `Cc1cc2nc(N[C@@H](C)c3cncc(F)c3)nc(C(=O)N3CC(C(=O)OC(C)(C)C)C3)c2s1` [Example Z573, tert-Butyl (S)-1-(2-((1-(5-fluoropyridin-3-yl)ethyl)amino)-6-methylthieno[3,2-d]pyrimidine-4-carbonyl)azetidine-3-carboxylate], the Ratio on adenosine A2B receptor was determined as 3.44. Moreover, the 50% inhibitory concentration (IC50) is 10 to 50 nM on adenosine A2B receptor, above 500 nM at adenosine A1 receptor, 100 to 500 nM at adenosine A2A receptor and above 500 nM at adenosine A3 receptor.

On to `Cc1cc2nc(N[C@@H](C)c3cncc(F)c3)nc(C(=O)N3CC(CS(C)(=O)=O)C3)c2s1` [Example Z575, (S)-(2-((1-(5-Fluoropyridin-3-yl)ethyl)amino)-6-methylthieno[3,2-d]pyrimidin-4-yl)(3-((methylsulfonyl)methyl)azetidin-1-yl)methanone], for which the Ratio on adenosine A2B receptor is 75.64. Moreover, the IC50 on adenosine A2B receptor is below 10 nM; on adenosine A1 receptor, above 500 nM; at adenosine A2A receptor, above 500 nM; against adenosine A3 receptor it was above 500 nM.

As for `CNC(=O)NCC1CN(C(=O)c2nc(N[C@@H](C)c3cncc(F)c3)nc3ccsc23)C1` [Example Z576, (S)-1-((1-(2-((1-(5-Fluoropyridin-3-yl)ethyl)amino)thieno[3,2-d]pyrimidine-4-carbonyl)azetidin-3-yl)methyl)-3-methylurea], the Ratio on adenosine A2B receptor was 26.03. Further, the 50% inhibitory concentration (IC50) on adenosine A2B receptor was below 10 nM; at adenosine A1 receptor, above 500 nM; at adenosine A2A receptor, 100 to 500 nM; on adenosine A3 receptor it was above 500 nM.

Take `C[C@H](Nc1nc(C(=O)N2CC(CNC(=O)N(C)C)C2)c2sccc2n1)c1cncc(F)c1` [Example Z577, (S)-3-((1-(2-((1-(5-Fluoropyridin-3-yl)ethyl)amino)thieno[3,2-d]pyrimidine-4-carbonyl)azetidin-3-yl)methyl)-1,1-dimethylurea]: the Ratio on adenosine A2B receptor is 6.37. The 50% inhibitory concentration (IC50) is 10 to 50 nM on adenosine A2B receptor, above 500 nM at adenosine A1 receptor, 50 to 100 nM on adenosine A2A receptor and above 500 nM against adenosine A3 receptor.

As for `CC(C)C(=O)NCC1CN(C(=O)c2nc(N[C@@H](C)c3cncc(F)c3)nc3ccsc23)C1` [Example Z578, (S)—N-((1-(2-((1-(5-Fluoropyridin-3-yl)ethyl)amino)thieno[3,2-d]pyrimidine-4-carbonyl)azetidin-3-yl)methyl)isobutyramide], the Ratio at adenosine A2B receptor is 4.95. Moreover, the IC50 at adenosine A2B receptor was 10 to 50 nM; against adenosine A1 receptor, above 500 nM; on adenosine A2A receptor it was 50 to 100 nM; at adenosine A3 receptor, above 500 nM.

Consider `C[C@H](Nc1nc(C(=O)N2CC(C(=O)NOC(C)(C)C)C2)c2sccc2n1)c1cncc(F)c1` [Example Z579, (S)—N-(tert-Butoxy)-1-(2-((1-(5-fluoropyridin-3-yl)ethyl)amino)thieno[3,2-d]pyrimidine-4-carbonyl)azetidine-3-carboxamide], for which the Ratio on adenosine A2B receptor came out at 1.29. The IC50 is 50 to 100 nM at adenosine A2B receptor, above 500 nM against adenosine A1 receptor, 50 to 100 nM on adenosine A2A receptor and above 500 nM on adenosine A3 receptor.

Consider `Cc1cc2nc(N[C@@H](C)c3cncc(F)c3)nc(C(=O)N3CC(CC(=O)OC(C)(C)C)C3)c2s1` [Example Z580, tert-Butyl (S)-2-(1-(2-((1-(5-Fluoropyridin-3-yl)ethyl)amino)-6-methylthieno[3,2-d]pyrimidine-4-carbonyl)azetidin-3-yl)acetate], for which the Ratio on adenosine A2B receptor is 1.19. The 50% inhibitory concentration (IC50) is 10 to 50 nM on adenosine A2B receptor, above 500 nM against adenosine A1 receptor, 10 to 50 nM at adenosine A2A receptor and 100 to 500 nM on adenosine A3 receptor.

Take `C[C@H](Nc1nc(C(=O)N2CC(CNC(=O)OCC(C)(C)C)C2)c2sccc2n1)c1cncc(F)c1` [Example Z581, Neopentyl (S)-((1-(2-((1-(5-fluoropyridin-3-yl)ethyl)amino)thieno[3,2-d]pyrimidine-4-carbonyl)azetidin-3-yl)methyl)carbamate]: at adenosine A2B receptor, the Ratio is on record as 1.68. The 50% inhibitory concentration (IC50) at adenosine A2B receptor was 10 to 50 nM; at adenosine A1 receptor, above 500 nM; on adenosine A2A receptor, 10 to 50 nM; against adenosine A3 receptor it was above 500 nM.

`C[C@H](Nc1nc(C(=O)N2CC(NC(=O)OC(C)(C)C)C2)c2sccc2n1)c1cncc(F)c1` [Example Z583, tert-Butyl (S)-(1-(2-((1-(5-fluoropyridin-3-yl)ethyl)amino)thieno[3,2-d]pyrimidine-4-carbonyl)azetidin-3-yl)carbamate]: the Ratio on adenosine A2B receptor was found to be 0.37. Besides, the IC50 at adenosine A2B receptor is 10 to 50 nM; on adenosine A1 receptor it was above 500 nM; at adenosine A2A receptor it was 10 to 50 nM; on adenosine A3 receptor, above 500 nM.

As for `CNC(=O)N1CCN(C(=O)c2nc(N[C@@H](C)c3cncc(F)c3)nc3ccsc23)C1` [Example Z585, (S)-3-(2-((1-(5-Fluoropyridin-3-yl)ethyl)amino)thieno[3,2-d]pyrimidine-4-carbonyl)-N-methylimidazolidine-1-carboxamide], the Ratio on adenosine A2B receptor is on record as 21.44. Further, the IC50 on adenosine A2B receptor is 10 to 50 nM; on adenosine A1 receptor, above 500 nM; on adenosine A2A receptor, 100 to 500 nM; against adenosine A3 receptor, above 500 nM.

With `Cc1cc2nc(N[C@@H](C)c3cncc(F)c3)nc(C(=O)N3CC(CNC(=O)CC(C)(C)C)C3)c2s1` [Example Z586, (S)—N-((1-(2-((1-(5-Fluoropyridin-3-yl)ethyl)amino)-6-methylthieno[3,2-d]pyrimidine-4-carbonyl)azetidin-3-yl)methyl)-3,3-dimethylbutanamide], the Ratio on adenosine A2B receptor is given as 2.27. In addition, the half-maximal inhibitory concentration (IC50) on adenosine A2B receptor was 10 to 50 nM; at adenosine A1 receptor it was above 500 nM; on adenosine A2A receptor, 50 to 100 nM; against adenosine A3 receptor it was above 500 nM.

With `Cc1cc2nc(N[C@@H](C)c3cncc(F)c3)nc(C(=O)N3CC(NC(=O)C(C)C)C3)c2s1` [Example Z588, (S)—N-(1-(2-((1-(5-Fluoropyridin-3-yl)ethyl)amino)-6-methylthieno[3,2-d]pyrimidine-4-carbonyl)azetidin-3-yl)isobutyramide], the Ratio at adenosine A2B receptor is 0.26. Further, the 50% inhibitory concentration (IC50) is 10 to 50 nM at adenosine A2B receptor, above 500 nM at adenosine A1 receptor, below 10 nM on adenosine A2A receptor and 100 to 500 nM against adenosine A3 receptor.

Regarding `Cc1cc2nc(N[C@@H](C)c3cncc(F)c3)nc(C(=O)N3CC(NC(=O)OCC(C)(C)C)C3)c2s1` [Example Z591, Neopentyl (S)-(1-(2-((1-(5-fluoropyridin-3-yl)ethyl)amino)-6-methylthieno[3,2-d]pyrimidine-4-carbonyl)azetidin-3-yl)carbamate], the Ratio at adenosine A2B receptor was 0.14. Besides, the half-inhibitory concentration (IC50) is 10 to 50 nM at adenosine A2B receptor, above 500 nM on adenosine A1 receptor, below 10 nM at adenosine A2A receptor and 10 to 50 nM on adenosine A3 receptor.

For the compound `Cc1cc2nc(N[C@@H](C)c3cncc(F)c3)nc(C(=O)N3CC(C(=O)NOC(C)(C)C)C3)c2s1` [Example Z592, (S)—N-(tert-Butoxy)-1-(2-((1-(5-fluoropyridin-3-yl)ethyl)amino)-6-methylthieno[3,2-d]pyrimidine-4-carbonyl)azetidine-3-carboxamide], the Ratio at adenosine A2B receptor is 4.67. Moreover, the half-maximal inhibitory concentration (IC50) was 10 to 50 nM on adenosine A2B receptor, above 500 nM against adenosine A1 receptor, 50 to 100 nM at adenosine A2A receptor and above 500 nM at adenosine A3 receptor.

As for `Cc1cc2nc(N[C@@H](C)c3cncc(F)c3)nc(C(=O)N3CCN(C(=O)NC(C)C)C3)c2s1` [Example Z593, (S)-3-(2-((1-(5-Fluoropyridin-3-yl)ethyl)amino)-6-methylthieno[3,2-d]pyrimidine-4-carbonyl)-N-isopropylimidazolidine-1-carboxamide], at adenosine A2B receptor, the Ratio is on record as 3.25. For the same compound, the concentration for half-maximal inhibition (IC50) is 10 to 50 nM on adenosine A2B receptor, above 500 nM on adenosine A1 receptor, 50 to 100 nM at adenosine A2A receptor and above 500 nM at adenosine A3 receptor.

For the compound `C[C@H](Nc1nc(C(=O)N2CC(NC(=O)C(C)(C)C)C2)c2sccc2n1)c1cncc(F)c1` [Example Z594, (S)—N-(1-(2-((1-(5-Fluoropyridin-3-yl)ethyl)amino)thieno[3,2-d]pyrimidine-4-carbonyl)azetidin-3-yl)pivalamide], on adenosine A2B receptor, the Ratio stood at 0.15. Moreover, the half-maximal inhibitory concentration (IC50) on adenosine A2B receptor was 10 to 50 nM; at adenosine A1 receptor it was above 500 nM; at adenosine A2A receptor, below 10 nM; at adenosine A3 receptor it was 50 to 100 nM.

Consider `Cc1cc2nc(N[C@@H](C)c3cncc(F)c3)nc(C(=O)N3CC[C@H]3C)c2s1` [Example Z595, (2-(((S)-1-(5-Fluoropyridin-3-yl)ethyl)amino)-6-methylthieno[3,2-d]pyrimidin-4-yl)((R)-2-methylazetidin-1-yl)methanone], for which the Ratio on adenosine A2B receptor is 9.45. Moreover, the IC50 on adenosine A2B receptor is below 10 nM; at adenosine A1 receptor it was below 10 nM; on adenosine A2A receptor, 10 to 50 nM; against adenosine A3 receptor, below 10 nM.

Turning to `Cc1cc2nc(N[C@@H](C)c3cncc(F)c3)nc(C(=O)N3CC[C@@H]3C)c2s1` [Example Z596], the Ratio at adenosine A2B receptor was 10.34. For the same compound, the IC50 was below 10 nM at adenosine A2B receptor, below 10 nM at adenosine A1 receptor, 10 to 50 nM at adenosine A2A receptor and below 10 nM against adenosine A3 receptor.
